From patent US20240201204A1, “Biomarker and Druggable Target of Neurodegeneration” (University Hospitals Cleveland Medical Center, priority 2020, published 2024)
Where two headings read alike, the source gives them in different places.

Columns and labels:
[1] = in vivo
Method: Diflunisal was administered PO and animals were euthanized at the indicated times post-dose. After peripheral blood collection, animals were perfused with 1×PBS to remove blood in the brain vasculature. Total plasma and brain levels of diflunisal were evaluated by LC-MS/MS and then converted to free drug levels after measurement of binding in mouse plasma and brain.
Diflunisal pharmacokinetics: Diflunisal levels in mouse plasma and brain were monitored by LC-MS/MS using an AB Sciex (Framingham, MA) 4000 QTRAP® mass spectrometer coupled to a Shimadzu (Columbia, MD) Prominence LC. Diflunisal was detected with the mass spectrometer in negative MRM (multiple reaction monitoring) mode by following the precursor to fragment ion transitions 248.9 to 204.9 (quantifier ion) and 248.9 to 184.9 (qualifier ion). An Agilent C18 XDB column (5 micron, 50×4.6 mm) was used for chromatography for PK studies with the following conditions: Buffer A: dH20+0.1% formic acid, Buffer B: acetonitrile+0.1% formic acid, 0-1.0 min 5% B, 1.0-1.5 min gradient to 100% B, 1.5-3.0 min 100% B, 3.0-3.2 min gradient to 5% B, 3.2-4.5 5% B. Tolbutamide (transition 269.1 to 169.9) from Sigma (St. Louis, MO) was used as an internal standard (IS). Pharmacokinetic studies were performed by injecting 8 week old C57BL/6J male mice with diflunisal formulated in 10% DMSO, 20% Kolliphor EL, 70% saline. 60 or 180 minutes post-dose, animals were anesthetized with ketamine (100 mg/kg) and xylazine (10 mg/kg) via intraperitoneal (IP) injection. Blood was collected using the anticoagulant ACD, and then brains were harvested after transcardial perfusion with 1×PBS. Tissues were weighed before snap freezing and blood spun at 9600×g to collect plasma which was stored frozen along with brain tissue at −80° C. until analysis. […] The concentration of drug in each time-point sample was quantified using Analyst software (Sciex). […] The limit of quantitation (LOQ) was defined as the lowest concentration at which back calculation yielded a concentration within 20% of theoretical.

[2] = Diflunisal protein binding by rapid equilibrium dialysis; format: in vitro ADME, mouse; conditions: diluted 1:20 (final) with PBS, 37° C.
Method: (§1) Diflunisal protein binding: Protein binding of diflunisal in mouse plasma or brain homogenate was determined by rapid equilibrium dialysis using RED chambers (Thermo Scientific, Waltham, MA). On the day of the RED experiment, frozen mouse plasma and 4× homogenized brain was thawed in a water bath at 37° C. Then it was equilibrated for 45 minutes at 37° C. in an atmosphere of 5% CO2. The pH of PBS was confirmed within 7.4±0.1. The pH of plasma and brain was measured and adjusted to 7.4±0.1 using concentrated acid or base. Plasma and brain diluted at 1:20 (final) with PBS and used for all subsequent steps. An aliquot of plasma or brain was spiked with compound to a compound concentration of 5 μM and vortex mixed. […] Donor, dialysate, and plasma or brain stability samples were analyzed by using a matrix matching approach whereby each sample was mixed in a 1:1 ratio with the opposite medium (blank matrix or PBS). […] Diflunisal levels in both chambers were measured by LC-MS/MS in comparison to a standard curve prepared in 1:1 matrix: PBS as described above. For each matrix, stability was assessed by maintaining individual aliquots of compound-spiked matrix at 37° C. and 5% CO2 for 0 and 6 hours. […] Stability of diflunisal in plasma and brain was 99% over 6 hours as assessed by LC-MS/MS. Fraction unbound (fu) was determined based on the following equations: […]

[3] = Diflunisal stability in plasma and brain homogenate; format: in vitro ADME; conditions: mouse plasma and brain homogenate, 37° C., 5% CO2, over 6 hours
Method: as §1

clinically-diagnosed TBI = assay: Pharmacoepidemiologic cohort analysis (MarketScan Medicare Supplemental database), incidence of TBI; format: in vivo, human; conditions: vs. PS-matched aspirin cohort, Cox regression model, 6 years of follow-up
Description: (§2) Because ac-tau has been generally reported in the brains of subjects with AD, we evaluated the relationship between salsalate or diflunisal use and incidence of clinically-diagnosed TBI or AD by analyzing 7.23 million U.S. commercially-insured individuals (MarketScan Medicare Supplemental database). We conducted two cohort analyses to evaluate the predicted association, based on individual level of longitudinal patient data and pharmacoepidemiologic methods, as previously established (Cheng et al., 2018). Thus, our two cohorts included: (1) salsalate vs. a matched aspirin population and (2) diflunisal vs. a matched aspirin population (Table 2). For each comparison, we estimated the un-stratified Kaplan-Meier curves and conducted propensity score (PS) stratified (n strata=10) log-rank tests and a Cox regression model after adjusting age, race, sex, and disease comorbidities (including diabetes, hypertension, and coronary artery disease) using a propensity score-matching method (Methods).
Study cohorts. The IBM® MarketScan® Medicare Supplemental Database is one of the first in the U.S. to profile the healthcare experience of retirees with Medicare supplemental insurance paid by employers. The MarketScan Medicare Supplemental Database provides detailed cost, use and outcomes data for healthcare services performed in both inpatient and outpatient settings. […]

Alzheimer's disease = assay: Pharmacoepidemiologic cohort analysis (MarketScan Medicare Supplemental database), incidence of AD; format: in vivo, human
Description: as §2
Study cohorts. The IBM® MarketScan® Medicare Supplemental Database is one of the first in the U.S. to profile the healthcare experience of retirees with Medicare supplemental insurance paid by employers. The MarketScan Medicare Supplemental Database provides detailed cost, use and outcomes data for healthcare services performed in both inpatient and outpatient settings. For most of the population, the medical claims are linked to outpatient prescription drug claims and person-level enrollment data through the use of unique patient or enrollee identifiers. […] This feature makes the database a robust tool for pharmacoeconomic and outcomes research and helps provide insight into the drug use and spending patterns of older Americans. In this study, the pharmacoepidemiology study utilized the MarketScan Medicare Claims database from 2012 to 2017. The dataset included individual-level diagnosis codes, procedure codes and pharmacy claim data for 7.23 million patients. Pharmacy prescriptions of salsalate, diflunisal, and aspirin were identified by using RxNorm and National Drug Code (NDC).
Outcome measurement. For a subject, a drug episode is defined as from drug initiation to drug discontinuation. Specifically, drug initiation is defined as the first day of drug supply (i.e. 1st prescription date). Drug discontinuation is defined as the last day of drug supply (i.e. last prescription date+days of supply) and without drug supply for the next 60 days. In another word, gaps of less than 60-day of drug supply were allowed within a drug episode. The drug cohort included the first drug episode for each subject. For the final cohorts, demographic variables including age, race, sex and geographical location were collected. […]

[4] = 500 mg diflunisal twice daily for 11 days; cited from earlier work
p300/CBP = conditions: literature (Shirakawa et al., 2016); cited from earlier work

O=C(O)c1cc(-c2ccc(F)cc2F)ccc1O [diflunisal]
penetration into mouse brain [1]: modest penetration of diflunisal into mouse brain
free drug plasma to brain ratio ([1]; male, C57BL/6J, mouse): 55:1
total diflunisal plasma to brain ratio ([1]; male, C57BL/6J, mouse): about 200:1
fraction unbound at 6 h, 5 μM ([2]; pH 7.4, mouse brain homogenate, read-out: fraction unbound in brain tissue (fubrain)): 0.05 ± 0.001
fraction unbound at 6 h, 5 μM ([2]; pH 7.4, mouse plasma, read-out: fraction unbound in plasma (fuplasma)): 0.014 ± 0.002
stability in plasma and brain [3]: 99%
hazard ratio [HR], clinically-diagnosed TBI (clinically-diagnosed TBI): 0.61
incidence of AD, subgroup analysis (Alzheimer's disease; excluding patients with type 2 diabetes, hypertension, or coronary artery disease, vs. aspirin): associated with decreased incidence of AD
hazard ratio [HR], AD (Alzheimer's disease; vs. PS-matched aspirin cohort, Cox regression model, 6 years of follow-up): 0.17
mean peak plasma levels in humans [4]: 190 µg/mL
inhibition of p300/CBP (p300/CBP): demonstrated to inhibit p300/CBP
